Patent publication US6111145A, “Cyclopentenone derivative” (Takara Shuzo Company, priority 1997, dated 2000)

Assays:
[1] = tested on: Promyelocytic leukemia cell strain HL-60 (ATCC CCL-240); assay: Growth of HL-60 cells, MTT method with microscopic observation; assay type: cell-based, human; details: HL-60, at the concentration completely suppressing growth
Protocol: (1) A 1.22, 2.44, 4.88, 9.77, 19.5, 39.1, 78.1, 156, 313, 625, 1250, 2500, 5000 or 10000 μg/ml solution (10 μl) (in 70% aqueous solution of ethanol) of 4-benzylcyclopentenone ether, 5-benzylcyclopentenone ether or 4,5-dibenzylcyclopentenone ether or a 70% aqueous solution of ethanol as a control (10 μl) was added to each well of a 96-well microtiter plate followed by drying with air. Promyelocytic leukemia cell strain HL-60 (ATCC CCL-240) was suspended in an RPMI 1640 medium containing 10% of fetal calf serum to an extent of 1×10^5 cells/ml, each 100 μl thereof was poured into each well of the above microtiter plate and incubated at 37° C. for 48 hours in the presence of 5% of CO2. Incubation was continued for four hours more after addition of 10 μl of a solution (5 mg/ml) of 3-(4,5-dimethylthiazol-2-yl)-2,5-diphenyltetrazolium bromide (MTT; manufactured by Sigma) in a phosphate-buffered aqueous saline solution and then the state of growth of the cells was observed under a microscope. Further, 100 μl of 2-propanol containing 0.04N HCl was added thereto followed by well stirring and the absorbance at 590 nm was measured.
(2) Influence of 4-tert-butylcyclopentenone ether, 5-tert-butylcyclopentenone ether or 4,5-di-tert-butylcyclopentenone ether to the growth of HL-60 cells was measured by the same method as in Example 2-(1).

[2] = molecular target: topoisomerase II (Homo sapiens, UniProt P11388); assay: Topoisomerase II inhibition, pBR322 DNA relaxation by agarose gel electrophoresis; assay type: biochemical
Chain of topoisomerase II (P11388 whole entry): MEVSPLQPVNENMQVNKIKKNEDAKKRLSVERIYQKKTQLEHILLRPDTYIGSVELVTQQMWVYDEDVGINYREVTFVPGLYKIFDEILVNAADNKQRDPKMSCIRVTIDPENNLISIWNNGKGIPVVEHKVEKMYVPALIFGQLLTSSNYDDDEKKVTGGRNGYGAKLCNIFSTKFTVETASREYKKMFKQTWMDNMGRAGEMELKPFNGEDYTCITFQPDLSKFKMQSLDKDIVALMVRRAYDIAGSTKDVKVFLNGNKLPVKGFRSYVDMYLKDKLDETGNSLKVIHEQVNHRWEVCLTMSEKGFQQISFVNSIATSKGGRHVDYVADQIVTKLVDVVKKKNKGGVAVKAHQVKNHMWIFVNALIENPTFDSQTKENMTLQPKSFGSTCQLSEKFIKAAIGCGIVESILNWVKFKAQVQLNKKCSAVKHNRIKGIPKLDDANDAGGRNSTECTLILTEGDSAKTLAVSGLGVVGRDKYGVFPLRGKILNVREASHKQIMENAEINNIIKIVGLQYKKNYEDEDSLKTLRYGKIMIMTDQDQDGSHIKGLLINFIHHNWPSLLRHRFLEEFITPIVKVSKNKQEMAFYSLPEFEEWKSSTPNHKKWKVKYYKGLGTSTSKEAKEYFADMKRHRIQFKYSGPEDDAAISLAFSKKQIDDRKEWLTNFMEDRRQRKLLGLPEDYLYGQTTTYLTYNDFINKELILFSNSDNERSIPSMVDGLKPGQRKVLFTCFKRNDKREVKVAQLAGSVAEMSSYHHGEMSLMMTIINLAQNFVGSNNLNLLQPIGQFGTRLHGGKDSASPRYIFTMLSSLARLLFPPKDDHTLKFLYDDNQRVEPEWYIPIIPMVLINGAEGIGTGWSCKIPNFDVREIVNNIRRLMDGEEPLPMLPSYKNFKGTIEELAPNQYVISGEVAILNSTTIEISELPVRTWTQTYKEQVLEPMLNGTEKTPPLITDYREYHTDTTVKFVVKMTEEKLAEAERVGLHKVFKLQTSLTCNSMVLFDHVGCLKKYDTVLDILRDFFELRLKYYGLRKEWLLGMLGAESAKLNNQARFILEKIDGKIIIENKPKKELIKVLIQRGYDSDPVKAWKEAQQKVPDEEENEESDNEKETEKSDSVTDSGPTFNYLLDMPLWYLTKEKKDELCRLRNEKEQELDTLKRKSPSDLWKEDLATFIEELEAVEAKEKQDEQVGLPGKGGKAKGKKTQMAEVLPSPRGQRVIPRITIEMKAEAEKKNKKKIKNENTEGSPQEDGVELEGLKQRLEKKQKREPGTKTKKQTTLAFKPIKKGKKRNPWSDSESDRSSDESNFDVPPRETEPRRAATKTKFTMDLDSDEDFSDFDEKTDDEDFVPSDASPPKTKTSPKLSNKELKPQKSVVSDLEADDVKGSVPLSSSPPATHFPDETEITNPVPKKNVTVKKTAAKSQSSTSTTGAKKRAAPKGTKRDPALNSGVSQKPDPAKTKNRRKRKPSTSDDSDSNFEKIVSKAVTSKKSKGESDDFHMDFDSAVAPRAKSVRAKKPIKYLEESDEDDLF
Protocol: (1) One μl of 0.25 μg/μl pBR322 DNA (manufactured by Takara Shuzo) was added to a mixture of 2 μl of topoisomerase II (manufactured by TopoGEN, 2 units/μl), 2 μl of a buffer with a ten-fold diluted concentration [0.5M Tris-HCl (pH 8.0), 1.2M KCl, 0.1M MgCl2, 5 mM adenosine triphosphate and 5 mM dithiothreitol], 2 μl of 0.1% bovine serum albumin (manufactured by Takara Shuzo), 11 μl of distilled water and 2 μl of distilled water (a control) or 4,5-di-tert-butylcyclopentenone ether prepared into various concentrations by water and made to react at 37° C. After the reaction for 30 minutes, the reaction was stopped by adding 2 μl aqueous solution of 1% sodium dodecylsulfate, 50% glycerol and 0.02% Bromophenol Blue.
The above reaction solution (20 μl) was applied to 1% agarose gel prepared from agarose L03 (manufactured by Takara Shuzo) and TAE buffer [40 mM Tris, 5mM sodium acetate and 1 mM disodium ethylenediaminetetraacetate (EDTA); adjusted to pH 7.8 with acetic acid] and electrophoresis was conducted in the TAE buffer. After the electrophoresis, the gel was dipped in an aqueous solution of 1 μg/ml ethidium bromide and irradiated with ultraviolet ray to observe the electrophoretic pattern of DNA.

[3] = set-up: species or system mice; details: mouse, in vivo, 300 mg/kg
[4] = tested on: carrageenan-induced pedal edema; assay: Carrageenan-induced pedal edema model; assay type: in vivo; details: Lewis rats, oral 1 or 10 mg/kg in olive oil 0.5 hour before carrageenan, paw volume after three hours
Protocol: Lewis rats (male; nine weeks age; body weight: about 250 g) were purchased from Seakku-Yoshitomi and the inflammation models such as carrageenan-induced pedal edema model (a model of rheumatoid arthritis) were prepared as follows whereby the tested substances were evaluated.
Thus, 4-tert-butylcyclopentenone ether or 4,5-di-tert-butylcyclopentenone ether in various concentrations by dissolving in olive oil (manufactured by Nacalai Tesque) was orally administered at the dose of 1 mg/10 ml/kg or 10 mg/10 ml/kg to rats which were fasted for 18 hours before initiation of the experiment.
After 0.5 hour from administration of these test drugs, 100 μl/rat of 1% suspension of carrageenan (manufactured by Wako) in a physiologically saline solution (manufactured by Otsuka Pharmaceutical) was injected to right paw to induce pedal edema. After three hours from the carrageenan injection, volume of right paw of the rat was measured by a pedal volume measuring device (manufactured by UGO BASILE). Incidentally, the measured value was expressed by calculating the increasing rate from the right paw volume of each rat measured before the carrageenan administration.

Compound: O=C1C=C[C@@H](OCc2ccccc2)[C@@H]1O (relative stereo) [4-benzylcyclopentenone ether]
- formation of apoptic body [1]: Formation of apoptic body was noted

Compound: O=C1C=C[C@@H](O)[C@@H]1OCc1ccccc1 (relative stereo) [5-benzylcyclopentenone ether]
- formation of apoptic body [1]: Formation of apoptic body was noted

Compound: CC(C)(C)O[C@@H]1C(=O)C=C[C@H]1OC(C)(C)C (relative stereo) [4,5-di-tert-butylcyclopentenone ether]
- superhelix DNA remaining ([2]; 250 μM in the reaction solution): the superhelix DNA remained to an medium extent
- superhelix DNA remaining ([2]; 500 μM in the reaction solution): most of the superhelix DNA remained
- superhelix DNA remaining ([2]; 1000 μM in the reaction solution): the superhelix DNA did not decrease at all
- concentration in the reaction solution showing topoisomerase suppressing activity ([2]; pBR322 DNA, 37° C., 30 minutes): not less than 250 μM
- death after single oral administration [3]: no dead case was noted
- suppressing action to edema induced by carrageenan (increasing rate of pedal edema) [4]: showed an suppressing action to edema

Compound: O=C1C=C[C@@H](OCc2ccccc2)[C@@H]1OCc1ccccc1 (relative stereo) [4,5-dibenzylcyclopentenone ether]
- formation of apoptic body [1]: Formation of apoptic body was noted

Compound: CC(C)(C)O[C@@H]1C=CC(=O)[C@H]1O (relative stereo) [4-tert-butylcyclopentenone ether]
- death after single oral administration [3]: no dead case was noted
- suppressing action to edema induced by carrageenan (increasing rate of pedal edema) [4]: showed an suppressing action to edema
